Series [1] has as its target Muscarinic acetylcholine receptor M2 (Rattus norvegicus, UniProt P10980). Kind of series: Positive allosteric modulation of rat muscarinic M2 receptor assessed as acetylcholine response.
The target in series [2] is Muscarinic acetylcholine receptor M2 (Homo sapiens) (UniProt P08172). Kind of series: Positive allosteric modulation of human muscarinic M2 receptor expressed in CHO-K1 cells assessed as leftward shift in acetylcholine response treated for 144 secs prior to acetylcholine addition measured for 5 mins by Fluo-4-AM based calcium mobilization assay relative to control. It is filed as functional, cell-based. Background: A change in cytosolic calcium serves as a functional read-out for many receptors and channels.

For series [3], the target named is Muscarinic acetylcholine receptor M2 (Rattus norvegicus) (UniProt P10980). Kind of series: Positive allosteric modulation of rat muscarinic M2 receptor assessed as acetylcholine response relative to control.
The target of series [4] is T1, Muscarinic acetylcholine receptor M4 (Homo sapiens, UniProt P08173).
T1 sequence (P08173 whole entry): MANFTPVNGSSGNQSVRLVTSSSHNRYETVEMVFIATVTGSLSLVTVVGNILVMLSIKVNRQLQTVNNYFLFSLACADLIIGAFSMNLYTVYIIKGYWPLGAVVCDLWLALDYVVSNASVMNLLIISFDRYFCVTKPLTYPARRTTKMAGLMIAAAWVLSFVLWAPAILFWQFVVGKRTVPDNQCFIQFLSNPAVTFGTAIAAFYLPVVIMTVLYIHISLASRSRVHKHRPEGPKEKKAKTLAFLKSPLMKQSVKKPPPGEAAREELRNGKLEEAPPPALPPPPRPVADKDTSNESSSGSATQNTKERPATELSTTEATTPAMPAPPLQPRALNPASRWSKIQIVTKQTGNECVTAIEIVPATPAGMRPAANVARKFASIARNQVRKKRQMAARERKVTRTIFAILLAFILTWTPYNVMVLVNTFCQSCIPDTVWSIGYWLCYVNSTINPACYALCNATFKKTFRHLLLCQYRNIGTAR
In words: Positive allosteric modulation of human muscarinic M4 receptor expressed in CHO-K1 cells assessed as leftward shift in acetylcholine response treated for 144 secs prior to acetylcholine addition measured for 5 mins by Fluo-4-AM based calcium mobilization assay. The format is functional, cell-based. The conditions noted are these: read-out: EC50.

Series [5] deals with Muscarinic acetylcholine receptor M1 (Rattus norvegicus) (UniProt P08482). Kind of series: Positive allosteric modulation of rat muscarinic M1 receptor assessed as acetylcholine response relative to control.
The target of series [6] is Muscarinic acetylcholine receptor M2 (Homo sapiens, UniProt P08172). Kind of series: Positive allosteric modulation of human muscarinic M2 receptor expressed in CHO-K1 cells assessed as leftward shift in acetylcholine response treated for 144 secs prior to acetylcholine addition measured for 5 mins by Fluo-4-AM based calcium mobilization assay. It is filed as functional, cell-based.

Series [7] concerns Plasma. In words: Fraction unbound in human plasma. It is filed as ADME, cell-free.
Series [8] deals with T2, Muscarinic acetylcholine receptor M4 (Homo sapiens) (UniProt P08173).
T2 sequence (whole entry): T1 sequence (P08173 whole entry)
In words: Positive allosteric modulation of human muscarinic M4 receptor expressed in CHO-K1 cells assessed as leftward shift in acetylcholine response at 10 uM treated for 144 secs prior to acetylcholine addition measured for 5 mins by Fluo-4-AM based calcium mobilization assay relative to acetylcholine. The format is functional, cell-based.

Series [9] concerns the target T2, Muscarinic acetylcholine receptor M4 (Homo sapiens). In words: Positive allosteric modulation of human muscarinic M4 receptor expressed in CHO-K1 cells assessed as leftward shift in acetylcholine response treated for 144 secs prior to acetylcholine addition measured for 5 mins by Fluo-4-AM based calcium mobilization assay relative to control. It is filed as functional, cell-based.

The target of series [10] is Muscarinic acetylcholine receptor M1 (Rattus norvegicus, UniProt P08482). Kind of series: Positive allosteric modulation of rat muscarinic M1 receptor assessed as acetylcholine response.
Series [11] addresses Muscarinic acetylcholine receptor M3 (Homo sapiens, UniProt P20309). In words: Positive allosteric modulation of human muscarinic M3 receptor expressed in CHO-K1 cells assessed as leftward shift in acetylcholine response treated for 144 secs prior to acetylcholine addition measured for 5 mins by Fluo-4-AM based calcium mobilization assay. It is filed as functional, cell-based.

Series [12] concerns the target Muscarinic acetylcholine receptor M5 (Homo sapiens, UniProt P08912). In words: Positive allosteric modulation of human muscarinic M5 receptor expressed in CHO-K1 cells assessed as leftward shift in acetylcholine response treated for 144 secs prior to acetylcholine addition measured for 5 mins by Fluo-4-AM based calcium mobilization assay. The format is functional, cell-based.

In series [13] the target is T3, Muscarinic acetylcholine receptor M4 (Rattus norvegicus, UniProt P08485).
T3 sequence (P08485 whole entry): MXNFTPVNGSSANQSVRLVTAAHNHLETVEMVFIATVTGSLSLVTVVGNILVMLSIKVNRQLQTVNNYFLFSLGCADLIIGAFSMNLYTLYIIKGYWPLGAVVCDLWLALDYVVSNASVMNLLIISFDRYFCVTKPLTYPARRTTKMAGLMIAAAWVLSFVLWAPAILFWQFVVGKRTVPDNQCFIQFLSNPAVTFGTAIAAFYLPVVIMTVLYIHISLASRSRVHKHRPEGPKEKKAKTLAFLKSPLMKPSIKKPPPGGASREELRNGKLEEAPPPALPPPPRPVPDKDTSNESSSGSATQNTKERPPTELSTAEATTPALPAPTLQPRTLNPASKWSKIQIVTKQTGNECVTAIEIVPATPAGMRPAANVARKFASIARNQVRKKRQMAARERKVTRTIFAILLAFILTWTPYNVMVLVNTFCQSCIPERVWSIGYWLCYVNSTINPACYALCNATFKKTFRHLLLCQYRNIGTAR
Kind of series: Positive allosteric modulation of rat muscarinic M4 receptor assessed as acetylcholine response.

In series [14] the target is Muscarinic acetylcholine receptor M1 (Homo sapiens, UniProt P11229). In words: Positive allosteric modulation of human muscarinic M1 receptor expressed in CHO-K1 cells assessed as leftward shift in acetylcholine response treated for 144 secs prior to acetylcholine addition measured for 5 mins by Fluo-4-AM based calcium mobilization assay. It is filed as functional, cell-based.

Series [15] deals with Muscarinic acetylcholine receptor M5 (Rattus norvegicus, UniProt P08911). Kind of series: Positive allosteric modulation of rat muscarinic M5 receptor assessed as acetylcholine response.
For series [16], the system named is Plasma. Kind of series: Fraction unbound in rat plasma. The format is ADME, cell-free.
Series [17] addresses Muscarinic acetylcholine receptor M4 (Rattus norvegicus) (UniProt P08485). In words: Positive allosteric modulation of rat muscarinic M4 receptor assessed as acetylcholine response at 10 uM relative to acetylcholine.
Series [18] addresses Muscarinic acetylcholine receptor M3 (Rattus norvegicus, UniProt P08483). Kind of series: Positive allosteric modulation of rat muscarinic M3 receptor assessed as acetylcholine response.
For series [19], the target named is Muscarinic acetylcholine receptor M1 (Homo sapiens) (UniProt P11229). In words: Positive allosteric modulation of human muscarinic M1 receptor expressed in CHO-K1 cells assessed as leftward shift in acetylcholine response treated for 144 secs prior to acetylcholine addition measured for 5 mins by Fluo-4-AM based calcium mobilization assay relative to control. The format is functional, cell-based.

The test system of series [20] is Rattus norvegicus. Kind of series: Antipsychotic activity in Sprague-Dawley rat assessed as reversal of amphetamine-induced hyperlocomotion at 10 mg/kg, ip after 90 mins. The format is functional. The conditions noted are these: route intraperitoneal.
Series [21] deals with Sodium-dependent dopamine transporter (Homo sapiens) (UniProt Q01959). Kind of series: Binding affinity to human DAT at 10 uM by radioligand binding assay.
In series [22] the test system is Rattus norvegicus. In words: Antipsychotic activity in Sprague-Dawley rat assessed as reversal of amphetamine-induced hyperlocomotion at 3 mg/kg, ip after 90 mins. The following applies: route intraperitoneal. It is filed as functional.
Series [23] can be described thus: Clearance in rat at 1 mg/kg, iv. The format is ADME, organism-based. The arrangement: dose 1 mg/kg, route intravenous. The conditions noted are these: in vivo.
Series [24] can be described thus: Half life in rat at 1 mg/kg, iv. It is filed as ADME, organism-based. Also on record: dose 1 mg/kg, route intravenous. The following applies: in vivo.
The nature of series [25]: Mean residence time in rat at 1 mg/kg, iv. It is filed as ADME, organism-based. The arrangement: dose 1 mg/kg, route intravenous. The following applies: in vivo.
For series [26], the system named is Rattus norvegicus. In words: Antipsychotic activity in Sprague-Dawley rat assessed as reversal of amphetamine-induced hyperlocomotion at 100 mg/kg, ip after 90 mins. The following applies: route intraperitoneal. The format is functional.
Series [27] is described as follows: Systemic plasma AUC in rat at 10 mg/kg, ip up to 6 hrs.
Series [28] concerns Rattus norvegicus. In words: Antipsychotic activity in ip dosed Sprague-Dawley rat assessed as reversal of amphetamine-induced hyperlocomotion after 90 mins. It is filed as functional, organism-based.
For series [29], the species on record is Rattus norvegicus. Kind of series: Binding affinity to rat GABAA receptor at 10 uM by radioligand binding assay.
A short description of series [30]: Volume of distribution at steady state in rat at 1 mg/kg, iv. The conditions noted are these: in vivo, read-out: Vdss. The format is ADME, organism-based. Also on record: dose 1 mg/kg, route intravenous.
In series [31] the test system is Rattus norvegicus. In words: Antipsychotic activity in Sprague-Dawley rat assessed as reversal of amphetamine-induced hyperlocomotion at 56.6 mg/kg, ip after 90 mins. It is filed as functional. The conditions noted are these: route intraperitoneal.
In series [32] the test system is Rattus norvegicus. In words: Antipsychotic activity in Sprague-Dawley rat assessed as reversal of amphetamine-induced hyperlocomotion at 30 mg/kg, ip after 90 mins. The format is functional. The conditions noted are these: route intraperitoneal.
Series [33] is described as follows: AUC in rat at 1 mg/kg, iv. Also on record: dose 1 mg/kg, route intravenous. The format is ADME, organism-based. The conditions noted are these: plasma.
The next series relates to Brain. In words: Drug level in rat brain at 10 mg/kg, ip up to 6 hrs. The format is ADME, organism-based. Also on record: dose 10 mg/kg, route intraperitoneal. The conditions noted are these: in vivo.

Sequence of Muscarinic acetylcholine receptor M2 (Rattus norvegicus, UniProt P10980) (P10980 whole entry): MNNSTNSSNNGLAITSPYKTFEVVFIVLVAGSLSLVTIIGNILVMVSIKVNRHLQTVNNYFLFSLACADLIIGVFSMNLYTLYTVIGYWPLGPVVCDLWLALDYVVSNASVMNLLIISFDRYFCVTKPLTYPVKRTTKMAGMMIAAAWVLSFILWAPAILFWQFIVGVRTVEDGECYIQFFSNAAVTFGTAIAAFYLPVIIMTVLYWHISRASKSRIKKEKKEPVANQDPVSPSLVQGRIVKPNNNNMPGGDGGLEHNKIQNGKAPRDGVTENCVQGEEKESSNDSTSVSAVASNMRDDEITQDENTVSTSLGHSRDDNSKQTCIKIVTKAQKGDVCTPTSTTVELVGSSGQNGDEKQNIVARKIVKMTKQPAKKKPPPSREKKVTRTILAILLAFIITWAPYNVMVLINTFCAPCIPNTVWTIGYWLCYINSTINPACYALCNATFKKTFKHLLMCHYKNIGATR
Sequence of Muscarinic acetylcholine receptor M5 (Rattus norvegicus, UniProt P08911) (P08911 whole entry): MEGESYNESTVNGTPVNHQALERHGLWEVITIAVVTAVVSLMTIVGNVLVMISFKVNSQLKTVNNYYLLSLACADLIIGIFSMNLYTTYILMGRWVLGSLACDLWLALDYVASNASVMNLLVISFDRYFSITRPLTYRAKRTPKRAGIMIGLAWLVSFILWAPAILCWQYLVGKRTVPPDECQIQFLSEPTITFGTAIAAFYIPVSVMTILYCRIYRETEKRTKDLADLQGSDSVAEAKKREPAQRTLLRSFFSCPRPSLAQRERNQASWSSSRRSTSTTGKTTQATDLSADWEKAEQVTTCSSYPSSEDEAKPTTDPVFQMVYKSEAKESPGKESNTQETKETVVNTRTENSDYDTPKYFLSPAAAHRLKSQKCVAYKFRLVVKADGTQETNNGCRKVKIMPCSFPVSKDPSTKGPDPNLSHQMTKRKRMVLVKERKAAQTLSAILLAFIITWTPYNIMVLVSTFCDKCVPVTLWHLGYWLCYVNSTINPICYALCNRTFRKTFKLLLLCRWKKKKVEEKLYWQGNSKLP
Sequence of Muscarinic acetylcholine receptor M2 (Homo sapiens, UniProt P08172) (P08172 whole entry): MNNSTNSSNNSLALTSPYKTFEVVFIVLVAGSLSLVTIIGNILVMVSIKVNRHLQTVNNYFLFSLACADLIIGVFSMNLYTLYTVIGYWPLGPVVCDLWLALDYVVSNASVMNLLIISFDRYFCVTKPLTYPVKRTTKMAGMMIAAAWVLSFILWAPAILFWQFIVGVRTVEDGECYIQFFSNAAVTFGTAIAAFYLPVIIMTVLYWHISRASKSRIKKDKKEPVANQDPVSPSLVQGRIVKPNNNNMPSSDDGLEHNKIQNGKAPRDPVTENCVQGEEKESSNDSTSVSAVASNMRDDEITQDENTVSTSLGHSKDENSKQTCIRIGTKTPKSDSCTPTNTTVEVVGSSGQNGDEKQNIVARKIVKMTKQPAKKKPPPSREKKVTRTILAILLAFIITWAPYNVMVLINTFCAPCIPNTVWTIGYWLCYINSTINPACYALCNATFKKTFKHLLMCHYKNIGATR
Sequence of Muscarinic acetylcholine receptor M3 (Homo sapiens, UniProt P20309) (P20309 whole entry): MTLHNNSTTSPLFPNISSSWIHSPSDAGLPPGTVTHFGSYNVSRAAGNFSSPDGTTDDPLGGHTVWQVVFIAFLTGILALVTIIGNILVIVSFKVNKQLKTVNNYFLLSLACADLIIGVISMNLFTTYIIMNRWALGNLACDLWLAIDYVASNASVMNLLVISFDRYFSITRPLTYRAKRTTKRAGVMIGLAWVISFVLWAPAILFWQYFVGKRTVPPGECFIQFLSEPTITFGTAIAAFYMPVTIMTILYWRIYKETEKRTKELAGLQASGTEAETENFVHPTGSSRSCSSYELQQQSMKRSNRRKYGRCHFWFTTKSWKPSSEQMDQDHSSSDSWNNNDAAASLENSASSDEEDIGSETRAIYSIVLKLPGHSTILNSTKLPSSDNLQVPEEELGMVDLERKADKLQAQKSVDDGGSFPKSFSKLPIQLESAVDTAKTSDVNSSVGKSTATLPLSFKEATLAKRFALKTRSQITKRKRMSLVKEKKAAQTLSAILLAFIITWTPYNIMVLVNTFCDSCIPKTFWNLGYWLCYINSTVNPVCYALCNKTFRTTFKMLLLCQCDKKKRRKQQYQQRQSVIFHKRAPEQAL
Sequence of Muscarinic acetylcholine receptor M3 (Rattus norvegicus, UniProt P08483) (P08483 whole entry): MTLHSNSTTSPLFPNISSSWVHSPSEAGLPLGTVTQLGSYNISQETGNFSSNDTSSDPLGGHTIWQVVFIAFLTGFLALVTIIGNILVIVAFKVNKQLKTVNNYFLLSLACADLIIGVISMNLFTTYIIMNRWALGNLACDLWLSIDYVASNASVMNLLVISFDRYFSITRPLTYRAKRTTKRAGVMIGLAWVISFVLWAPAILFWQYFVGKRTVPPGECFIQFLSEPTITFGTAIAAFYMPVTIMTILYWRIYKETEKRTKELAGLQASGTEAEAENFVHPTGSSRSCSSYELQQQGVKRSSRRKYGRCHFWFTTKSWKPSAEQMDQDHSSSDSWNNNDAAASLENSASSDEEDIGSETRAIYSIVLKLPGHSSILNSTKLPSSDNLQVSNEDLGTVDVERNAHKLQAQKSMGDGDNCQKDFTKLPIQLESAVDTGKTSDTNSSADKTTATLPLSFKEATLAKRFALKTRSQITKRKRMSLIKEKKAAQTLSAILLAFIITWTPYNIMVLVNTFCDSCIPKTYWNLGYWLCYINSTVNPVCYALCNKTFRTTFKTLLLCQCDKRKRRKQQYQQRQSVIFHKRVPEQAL
Sequence of Muscarinic acetylcholine receptor M5 (Homo sapiens, UniProt P08912) (P08912 whole entry): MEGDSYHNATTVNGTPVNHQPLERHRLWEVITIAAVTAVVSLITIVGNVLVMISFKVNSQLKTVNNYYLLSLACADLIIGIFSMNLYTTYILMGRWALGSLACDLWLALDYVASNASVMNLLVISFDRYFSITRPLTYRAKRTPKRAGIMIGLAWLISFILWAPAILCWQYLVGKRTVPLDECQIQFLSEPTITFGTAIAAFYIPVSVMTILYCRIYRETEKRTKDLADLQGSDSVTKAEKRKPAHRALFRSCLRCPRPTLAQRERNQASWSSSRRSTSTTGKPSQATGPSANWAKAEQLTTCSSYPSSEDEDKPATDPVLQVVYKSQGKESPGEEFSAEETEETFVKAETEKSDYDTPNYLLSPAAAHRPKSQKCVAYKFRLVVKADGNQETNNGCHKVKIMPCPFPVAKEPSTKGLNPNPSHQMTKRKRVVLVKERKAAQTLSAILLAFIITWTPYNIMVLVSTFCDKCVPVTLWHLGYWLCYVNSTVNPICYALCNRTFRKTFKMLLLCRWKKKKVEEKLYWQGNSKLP
Sequence of Muscarinic acetylcholine receptor M1 (Rattus norvegicus, UniProt P08482) (P08482 whole entry): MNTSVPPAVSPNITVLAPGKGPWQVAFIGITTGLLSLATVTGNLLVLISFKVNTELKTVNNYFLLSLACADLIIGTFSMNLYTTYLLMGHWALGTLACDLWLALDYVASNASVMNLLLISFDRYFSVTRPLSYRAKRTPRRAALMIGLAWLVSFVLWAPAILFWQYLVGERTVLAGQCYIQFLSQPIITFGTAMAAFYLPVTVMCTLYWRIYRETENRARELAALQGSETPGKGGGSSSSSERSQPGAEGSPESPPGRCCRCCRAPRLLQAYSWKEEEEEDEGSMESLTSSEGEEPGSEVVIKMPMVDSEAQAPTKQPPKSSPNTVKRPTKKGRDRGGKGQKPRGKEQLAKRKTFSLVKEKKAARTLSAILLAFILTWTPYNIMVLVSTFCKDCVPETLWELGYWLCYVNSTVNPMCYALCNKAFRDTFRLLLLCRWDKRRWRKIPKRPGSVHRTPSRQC
Sequence of Muscarinic acetylcholine receptor M1 (Homo sapiens, UniProt P11229) (P11229 whole entry): as the sequence (P08482 whole entry) above, with V5A, S254T, S309P, K320R, G337A, V413I counted along it
Sequence of Muscarinic acetylcholine receptor M2 (Rattus norvegicus) (P10980 whole entry): as the sequence (P10980 whole entry) above
Sequence of Sodium-dependent dopamine transporter (Homo sapiens) (Q01959 whole entry): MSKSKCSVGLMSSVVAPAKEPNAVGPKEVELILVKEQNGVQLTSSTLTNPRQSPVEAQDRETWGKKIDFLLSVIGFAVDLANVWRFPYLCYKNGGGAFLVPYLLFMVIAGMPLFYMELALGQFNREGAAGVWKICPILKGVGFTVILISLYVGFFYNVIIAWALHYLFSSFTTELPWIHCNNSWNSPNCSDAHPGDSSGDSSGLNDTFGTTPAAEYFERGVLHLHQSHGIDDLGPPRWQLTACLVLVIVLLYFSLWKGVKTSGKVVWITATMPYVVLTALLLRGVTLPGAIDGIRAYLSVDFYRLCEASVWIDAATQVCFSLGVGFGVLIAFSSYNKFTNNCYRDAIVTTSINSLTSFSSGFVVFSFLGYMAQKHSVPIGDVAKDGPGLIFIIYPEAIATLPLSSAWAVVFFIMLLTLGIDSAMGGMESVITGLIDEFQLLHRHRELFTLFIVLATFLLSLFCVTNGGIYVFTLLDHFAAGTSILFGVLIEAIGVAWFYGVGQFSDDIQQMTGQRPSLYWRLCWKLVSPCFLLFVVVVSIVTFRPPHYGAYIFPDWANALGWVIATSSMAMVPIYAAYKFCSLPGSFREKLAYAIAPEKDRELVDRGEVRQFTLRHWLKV
Sequence of Muscarinic acetylcholine receptor M2 (Homo sapiens) (P08172 whole entry): as the sequence (P08172 whole entry) above
Sequence of Muscarinic acetylcholine receptor M1 (Rattus norvegicus) (P08482 whole entry): as the sequence (P08482 whole entry) above
Sequence of Muscarinic acetylcholine receptor M1 (Homo sapiens) (P11229 whole entry): as the sequence (P08482 whole entry) above, with V5A, S254T, S309P, K320R, G337A, V413I counted along it

In general, EC50 refers to the midpoint of the concentration-response curve. As for `Cc1nc2sc(C(=O)NC3CC3)c(N)c2c(C)c1Cl`, the EC50 in series [1] was 640 nM; in [4], 77 nM; in series [6], 550 nM; in series [10], 940 nM; in series [11], greater than 30000 nM; in series [12], greater than 30000 nM. Besides, the EC50 in [13] is 147 nM; in series [14], 970 nM; in [15], greater than 30000 nM; in series [18] it was greater than 30000 nM. Moreover, the %max came to 64% in [2]; 58% in [3]; 26% in series [5]; 94% in [9]; 33% in [19]. The Fu in the series with Plasma [7] came to 1.1%; in the series with Plasma [16], 6.4%. Also, the figures for the fold change (FC) in series [8] and in series [17] were 224 and 54.1, respectively.

In general, inhibition refers to the percentage by which the read-out fell short of the control. Low readings indicate a weak effect, high ones a strong effect. One may read the clearance as the rate of elimination divided by the concentration. A lower clearance goes with a low capacity for elimination. One may read the half-life as the time in which the quantity being followed falls by half. The low end stands for rapid decline, the high end for slow decline. The MRT is the average time that molecules of a dose stay in the body. What is called AUC is the area under the concentration-time curve, a measure of exposure. A lower AUC goes with less exposure. As to `Cc1nc2sc(C(=O)NCc3ccncc3)c(N)c2c(C)c1Cl`, the EC50 in [1] was greater than 30000 nM; in series [4] it was 56 nM; in series [6], greater than 30000 nM; in [10], greater than 30000 nM; in series [11], greater than 30000 nM; in [12], greater than 30000 nM. The EC50 in series [13] is 176 nM; in series [14] it was greater than 30000 nM; in series [15] it was greater than 30000 nM; in [18], greater than 30000 nM. For the same molecule, the Activity in the series with Rattus norvegicus [20] is 25.7%; in the series on Rattus norvegicus [22], 18.7%; in the series with Rattus norvegicus [26], 57.3%; with Rattus norvegicus [28] it was “Dose-dependent effect”; in the series on Rattus norvegicus [31], 53.7%; in the series on Rattus norvegicus [32] it was 47.9%. The inhibition in [21] was 74%; in the series filed under Rattus norvegicus [29], 64%. The clearance in series [23] was 104 mL/min/kg. In series [24], this molecule came in with a half-life of 17.5 min. In addition, the fold change (FC) is 106 in series [8] and 49.6 in series [17]. The same molecule had a mean residence time (MRT) in [25] of 27.5 min. The %max in series [9] worked out at 94.1%. In series [27], the AUC at 6 h is 3880 ng·h/mL. Besides, the Vd in series [30] was 2.6 L/kg. In the series on Plasma [16], this molecule registered a Fu of 1.7%. The molecule also registered an area under the curve (AUC) in series [33] of 175 ng·h/mL. In the series on Brain, this molecule showed a Drug uptake of 3410 ng/g.

Source of the values: ChEMBL document CHEMBL2311451, “Discovery of a selective M₄ positive allosteric modulator based on the 3-amino-thieno[2,3-b]pyridine-2-carboxamide scaffold: development of ML253, a potent and brain penetrant compound that is active in a preclinical model of schizophrenia” (Bioorg Med Chem Lett, 2013).
